Test results: patent publication US9993494B2, “Compositions and methods for treating fibrotic disease” (eFFECTOR Therapeutics, Inc., priority 2014, dated 2018)

System: normal human lung fibroblasts
Experiment: Ribosomal profiling: translational efficiency in TGFβ-treated fibroblasts
Format: cell-based
Conditions: TGFβ-treated fibroblasts
Outline: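 Genome-wide RPF and total RNA libraries (ARTseq, RNA-Seq) were made from lysates of cycloheximide-treated, PBS-washed cells. After trimming and human-genome mapping, per-gene coding-region counts were compared between RPF and RNA for translational efficiency. Genes scoring low in either fraction were dropped.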

## Cc1cc(C2CCCCC2)n(O)c(=O)c1.NCCO [CPX, ciclopirox oloamine]
Gene RPS6 (ENSG00000137154)
  effect in renormalizing the translational profile of the gene: − (− = <0.9)
Gene RPS6KA5 (ENSG00000100784)
  effect in renormalizing the translational profile of the gene: − (− = <0.9)
Gene RPS7 (ENSG00000171863)
  effect in renormalizing the translational profile of the gene: − (− = <0.9)
Gene RPS8 (ENSG00000142937)
  effect in renormalizing the translational profile of the gene: − (− = <0.9)
Gene RPS9 (ENSG00000170889)
  effect in renormalizing the translational profile of the gene: − (− = <0.9)
Gene RPS10 (ENSG00000124614)
  effect in renormalizing the translational profile of the gene: − (− = <0.9)
Gene RPS11 (ENSG00000142534)
  effect in renormalizing the translational profile of the gene: − (− = <0.9)
Gene RPS12 (ENSG00000112306)
  effect in renormalizing the translational profile of the gene: − (− = <0.9)
Gene RPS13 (ENSG00000110700)
  effect in renormalizing the translational profile of the gene: − (− = <0.9)
Gene RPS14 (ENSG00000164587)
  effect in renormalizing the translational profile of the gene: − (− = <0.9)
Gene RPS15 (ENSG00000115268)
  effect in renormalizing the translational profile of the gene: − (− = <0.9)
Gene RPS15A (ENSG00000134419)
  effect in renormalizing the translational profile of the gene: − (− = <0.9)
Gene RPS16 (ENSG00000105193)
  effect in renormalizing the translational profile of the gene: − (− = <0.9)
Gene RPS18 (ENSG00000231500)
  effect in renormalizing the translational profile of the gene: − (− = <0.9)
Gene RPS19 (ENSG00000105372)
  effect in renormalizing the translational profile of the gene: − (− = <0.9)
Gene RPS20 (ENSG00000008988)
  effect in renormalizing the translational profile of the gene: − (− = <0.9)
Gene RPS21 (ENSG00000171858)
  effect in renormalizing the translational profile of the gene: − (− = <0.9)
Gene RPS23 (ENSG00000186468)
  effect in renormalizing the translational profile of the gene: − (− = <0.9)
Gene RPS24 (ENSG00000138326)
  effect in renormalizing the translational profile of the gene: − (− = <0.9)
Gene RPS25 (ENSG00000118181)
  effect in renormalizing the translational profile of the gene: − (− = <0.9)
Gene RPS26 (ENSG00000197728)
  effect in renormalizing the translational profile of the gene: − (− = <0.9)
Gene RPS27 (ENSG00000177954)
  effect in renormalizing the translational profile of the gene: − (− = <0.9)
Gene RPS27A (ENSG00000143947)
  effect in renormalizing the translational profile of the gene: − (− = <0.9)
Gene RPS28 (ENSG00000233927)
  effect in renormalizing the translational profile of the gene: + (+ = 0.9 to 1.5)
Gene RPS29 (ENSG00000213741)
  effect in renormalizing the translational profile of the gene: − (− = <0.9)
Gene RPSA (ENSG00000168028)
  effect in renormalizing the translational profile of the gene: − (− = <0.9)
Gene RTN2 (ENSG00000125744)
  effect in renormalizing the translational profile of the gene: − (− = <0.9)
Gene SEMA3A (ENSG00000075213)
  effect in renormalizing the translational profile of the gene: − (− = <0.9)
Gene SGIP1 (ENSG00000118473)
  effect in renormalizing the translational profile of the gene: − (− = <0.9)
Gene SH3BGR (ENSG00000185437)
  effect in renormalizing the translational profile of the gene: − (− = <0.9)
Gene SHC3 (ENSG00000148082)
  effect in renormalizing the translational profile of the gene: +++ (+++ = >2.0)
Gene SLC2A12 (ENSG00000146411)
  effect in renormalizing the translational profile of the gene: − (− = <0.9)
Gene SLC7A7 (ENSG00000155465)
  effect in renormalizing the translational profile of the gene: − (− = <0.9)
Gene SLC15A3 (ENSG00000110446)
  effect in renormalizing the translational profile of the gene: − (− = <0.9)
Gene SLC25A6 (ENSG00000169100)
  effect in renormalizing the translational profile of the gene: − (− = <0.9)
Gene SLC40A1 (ENSG00000138449)
  effect in renormalizing the translational profile of the gene: ++ (++ = 1.5 to 2.0)
Gene SMO (ENSG00000128602)
  effect in renormalizing the translational profile of the gene: − (− = <0.9)
Gene SNRPA (ENSG00000077312)
  effect in renormalizing the translational profile of the gene: − (− = <0.9)
Gene SOX5 (ENSG00000134532)
  effect in renormalizing the translational profile of the gene: − (− = <0.9)
Gene SOX6 (ENSG00000110693)
  effect in renormalizing the translational profile of the gene: − (− = <0.9)
Gene SPATA6 (ENSG00000132122)
  effect in renormalizing the translational profile of the gene: − (− = <0.9)
Gene STAMBPL1 (ENSG00000138134)
  effect in renormalizing the translational profile of the gene: + (+ = 0.9 to 1.5)
Gene STS (ENSG00000101846)
  effect in renormalizing the translational profile of the gene: − (− = <0.9)
Gene SYNE2 (ENSG00000054654)
  effect in renormalizing the translational profile of the gene: − (− = <0.9)
Gene TAF1D (ENSG00000166012)
  effect in renormalizing the translational profile of the gene: − (− = <0.9)
Gene TDG (ENSG00000139372)
  effect in renormalizing the translational profile of the gene: − (− = <0.9)
Gene TEN1 (ENSG00000257949)
  effect in renormalizing the translational profile of the gene: − (− = <0.9)
Gene TET2 (ENSG00000168769)
  effect in renormalizing the translational profile of the gene: − (− = <0.9)
Gene TET3 (ENSG00000187605)
  effect in renormalizing the translational profile of the gene: − (− = <0.9)
Gene TGFBI (ENSG00000120708)
  effect in renormalizing the translational profile of the gene: − (− = <0.9)
Gene THBS3 (ENSG00000169231)
  effect in renormalizing the translational profile of the gene: − (− = <0.9)
Gene THG1L (ENSG00000113272)
  effect in renormalizing the translational profile of the gene: − (− = <0.9)
Gene TIMM9 (ENSG00000100575)
  effect in renormalizing the translational profile of the gene: − (− = <0.9)
Gene TKT (ENSG00000163931)
  effect in renormalizing the translational profile of the gene: − (− = <0.9)
Gene TMTC1 (ENSG00000133687)
  effect in renormalizing the translational profile of the gene: − (− = <0.9)
Gene TOMM7 (ENSG00000196683)
  effect in renormalizing the translational profile of the gene: + (+ = 0.9 to 1.5)
Gene TOP2A (ENSG00000131747)
  effect in renormalizing the translational profile of the gene: − (− = <0.9)
Gene TPGS1 (ENSG00000141933)
  effect in renormalizing the translational profile of the gene: − (− = <0.9)
Gene TPM2 (ENSG00000198467)
  effect in renormalizing the translational profile of the gene: − (− = <0.9)
Gene TPT1 (ENSG00000133112)
  effect in renormalizing the translational profile of the gene: − (− = <0.9)
Gene TRERF1 (ENSG00000124496)
  effect in renormalizing the translational profile of the gene: − (− = <0.9)
Gene UBA52 (ENSG00000221983)
  effect in renormalizing the translational profile of the gene: − (− = <0.9)
Gene UQCRB (ENSG00000156467)
  effect in renormalizing the translational profile of the gene: − (− = <0.9)
Gene UTRN (ENSG00000152818)
  effect in renormalizing the translational profile of the gene: − (− = <0.9)
Gene VIM (ENSG00000026025)
  effect in renormalizing the translational profile of the gene: − (− = <0.9)
Gene ZNF581 (ENSG00000171425)
  effect in renormalizing the translational profile of the gene: − (− = <0.9)
